Among the data in patent publication US20110312974A1, “HETEROARYL ANTAGONISTS OF PROSTAGLANDIN D2 RECEPTORS” (AMIRA PHARMACEUTICALS, INC., priority 2008, published 2011) are IC50 values, retold here.

The target of this assay is T1, human DP2 receptor (Homo sapiens, UniProt Q9Y5Y4).
T1 construct: expressed in transfected cells; membrane preparation
T1 sequence (Q9Y5Y4 1-395): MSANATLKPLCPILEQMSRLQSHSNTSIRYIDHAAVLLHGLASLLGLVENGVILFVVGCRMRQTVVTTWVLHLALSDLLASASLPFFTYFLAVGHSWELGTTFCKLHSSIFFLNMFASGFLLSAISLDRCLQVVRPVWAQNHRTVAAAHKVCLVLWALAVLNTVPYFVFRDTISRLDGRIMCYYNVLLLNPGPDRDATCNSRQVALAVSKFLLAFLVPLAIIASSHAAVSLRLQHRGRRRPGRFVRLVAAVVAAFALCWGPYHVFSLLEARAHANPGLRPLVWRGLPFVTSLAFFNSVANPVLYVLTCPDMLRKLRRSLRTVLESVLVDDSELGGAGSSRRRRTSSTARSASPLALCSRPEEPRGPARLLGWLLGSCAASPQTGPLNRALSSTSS
The assay can be described thus: DP2/CRTH2 radioligand binding assay using [3H]PGD2. The following applies: hDP2 (CRTH2) binding assay; membranes of HEK293 cells expressing recombinant human DP2, 1 nM [3H]PGD2. As to the method:
The ability of a compound to bind to the human DP2 receptor is assessed via a radioligand binding assay using [^3H]PGD2. HEK293 cells stably expressing recombinant human DP2 are resuspended in 10 mM Hepes, 7.4 containing 1 mM DTT, lysed and centrifuged at 75,000×g to pellet the membranes. The membranes are resuspended in 10 mM Hepes, 7.4 containing 1 mM DTT and 10% glycerol to approximately 5 mg protein/ml. Membranes (2-10 μg protein/well) are incubated in 96-well plates with 1 nM [^3H]PGD2 and test compound in Assay Buffer (50 mM Hepes, 10 mM MnCl2, 1 mM EDTA, plus or minus 0.2% human serum albumin, pH 7.4) for 60 minutes at room temperature. The reactions are terminated by rapid filtration through Whatman GF/C glass fibre filter plates. The filter plates were pre-soaked in 0.33% polythylenimine for 30 minutes at room temperature then washed in Wash Buffer (50 mM Hepes, 0.5 M NaCl pH 7.4) prior to harvesting. After harvesting, the filter plates are washed 3 times with 1 ml cold Wash Buffer then dried. Scintillant is then added to the plates and the radioactivity retained on the filters is determined on a Packard TopCount (Perkin Elmer). Specific binding is determined as total radioactive binding minus non-specific binding in the presence of 10 μM PGD2. IC50s were determined using GraphPad prism analysis of drug titration curves.
What is called IC50 is the concentration that gives 50% inhibition. As to `O=C(O)Cc1cncc(-c2ccc(C(=O)N3CCCC3)cc2CN(Cc2ccccc2)C(=O)C2CC2)c1` [Compound 1-8, {5-[2-[(N-Benzyl-N-cyclopropanecarbonyl-amino)-methyl]-4-(pyrrolidine-1-carbonyl)-phenyl]-pyridin-3-yl}-acetic acid], the IC50 lay within 300 to 1000 nM. To `CC(=O)NCc1ccc(-c2cncc(CC(=O)O)c2)c(CN(Cc2ccccc2)C(=O)C2CC2)c1` [Compound 1-9, (5-{4-(Acetylamino-methyl)-2-[(N-benzyl-N-cyclopropanecarbonyl-amino)-methyl]-phenyl}-pyridin-3-yl)-acetic acid] belongs more than 1000 nM; to `CS(=O)(=O)NCc1ccc(-c2cncc(CC(=O)O)c2)c(CN(Cc2ccccc2)C(=O)C2CC2)c1` [Compound 1-10, {5-[2-[(N-Benzyl-N-cyclopropanecarbonyl-amino)-methyl]-4-(methanesulfonylamino-methyl)-phenyl]-pyridin-3-yl}-acetic acid], more than 1000 nM. The result for `CCN(Cc1cc(F)ccc1-c1cncc(C(C)C(=O)O)c1)C(=O)OCc1ccccc1` (centres unmarked) [Compound 1-11, 2-(5-{2-[(N-Benzyloxycarbonyl-N-ethyl-amino)-methyl]-4fluoro-phenyl}-pyridin-3-yl)-propionic acid] reads less than 300 nM; that for `CCN(Cc1cc(F)ccc1-c1cncc(C(C)C(=O)O)c1)C(=O)NCc1ccccc1` (centres unmarked) [Compound 1-12, 2-{5-[2-(3-Benzyl-1-ethyl-ureidomethyl)-4fluoro-phenyl]-pyridin-3-yl}-propionic acid], 300 to 1000 nM; that for `CCN(Cc1cc(F)ccc1-c1cncc(C(C)C(=O)O)c1)C(=O)C1CC1` (centres unmarked) [Compound 1-13, 2-(5-[2-[(N-Cyclopropanecarbonyl-N-ethyl-amino)-methyl]-4-fluoro-phenyl]-pyridin-3-yl)-propionic acid], more than 1000 nM. To `O=C(O)Cc1cncc(-c2ccc(C(F)(F)F)cc2CN(C(=O)C2CC2)C2Cc3ccccc3C2)c1` [Compound 1-24, (5-{2-[(N-Cyclopropanecarbonyl-N-indan-2-yl-amino)-methyl]-4-trifluoromethyl-phenyl}-pyridin-3-yl)-acetic acid] belongs less than 300 nM; to `O=C(O)Cc1cncc(-c2ccc(C(F)(F)F)cc2CN(CCc2ccccc2)C(=O)C2CC2)c1` [Compound 1-26, (5-{2-[(N-Cyclopropanecarbonyl-N-phenethyl-amino)-methyl]-4-trifluoromethyl-phenyl}-pyridin-3-yl)-acetic acid], less than 300 nM.

With `CC(=O)N(CCc1ccccc1)Cc1cc(C(F)(F)F)ccc1-c1cncc(CC(=O)O)c1` [Compound 1-27, (5-{2-[(N-Acetyl-N-phenethyl-amino)-methyl]-4-trifluoromethyl-phenyl}-pyridin-3-yl)-acetic acid], the IC50 was less than 300 nM.

As to `CCN(Cc1cc(C(F)(F)F)ccc1-c1cc(CC(=O)O)ccn1)C(=O)NCc1ccccc1` [Compound 1-34, {2-[2-(3-Benzyl-1-ethyl-ureidomethyl)-4-trifluoromethyl-phenyl]-pyridin-4-yl}-acetic acid], the IC50 is more than 1000 nM.

As for `CCN(Cc1cc(C(F)(F)F)ccc1-c1cc(CC(=O)O)ccn1)C(=O)C1CC1` [Compound 1-35, (2-{2-[(N-Cyclopropanecarbonyl-N-ethyl-amino)-methyl]-4-trifluoromethyl-phenyl}-pyridin-4-yl)-acetic acid], the IC50 is more than 1000 nM. The result for `CCN(Cc1cc(C(F)(F)F)ccc1-c1cc(CC(=O)O)ccn1)C(=O)C1CCC1` [Compound 1-36, (2-{2-[(N-Cyclobutanecarbonyl-N-ethyl-amino)-methyl]-4-trifluoromethyl-phenyl}-pyridin-4-yl)-acetic acid] reads more than 1000 nM; that for `CCN(Cc1cc(C(F)(F)F)ccc1-c1cc(CC(=O)O)ccn1)C(=O)c1ccccc1` [Compound 1-37, (2-{2-[(N-Benzoyl-N-ethyl-amino)-methyl]-4-trifluoromethyl-phenyl}-pyridin-4-yl)-acetic acid], more than 1000 nM.

Take `CCN(Cc1cc(C(F)(F)F)ccc1-c1cccc(CC(=O)O)n1)C(=O)OC(C)(C)C` [Compound 1-38, (6-{2-[(N-tert-Butoxycarbonyl-N-ethyl-amino)-methyl]-4-trifluoromethyl-phenyl}-pyridin-2-yl)-acetic acid]: the IC50 is more than 1000 nM. To `CCN(Cc1cc(C(F)(F)F)ccc1-c1cccc(CC(=O)O)n1)C(=O)NCc1ccccc1` [Compound 1-39, {6-[2-(3-Benzyl-1-ethyl-ureidomethyl)-4-trifluoromethyl-phenyl]-pyridin-2-yl}-acetic acid] belongs more than 1000 nM. To `CCN(Cc1cc(C(F)(F)F)ccc1-c1cccc(CC(=O)O)n1)C(=O)C1CC1` [Compound 1-40, (6-{2-[(N-Cyclopropanecarbonyl-N-ethyl-amino)-methyl]-4-trifluoromethyl-phenyl}-pyridin-2-yl)-acetic acid] belongs more than 1000 nM; to `CCN(Cc1cc(C(F)(F)F)ccc1-c1cc(C(F)(F)F)cc(CC(=O)O)n1)C(=O)C1CCC1` [Compound 1-41, (6-{2-[(N-Cyclobutanecarbonyl-N-ethyl-amino)-methyl]-4-trifluoromethyl-phenyl}-4-trifluoromethyl-pyridin-2-yl)-acetic acid], less than 300 nM; to `CCN(Cc1cc(C(F)(F)F)ccc1-c1cc(C(F)(F)F)cc(CC(=O)O)n1)C(=O)NCc1ccccc1` [Compound 1-42, {6-[2-(3-Benzyl-1-ethyl-ureidomethyl)-4-trifluoromethyl-phenyl]-4-trifluoromethyl-pyridin-2-yl}-acetic acid], less than 300 nM.

For the molecule `CCN(Cc1cc(-n2cccn2)ccc1-c1cc(CC(=O)O)cnc1OC)C(=O)C1CC1` [Compound 1-46, (5-{2-[(N-Cyclopropanecarbonyl-N-ethyl-amino)-methyl]-4-pyrazol-1-yl-phenyl}-6-methoxy-pyridin-3-yl)-acetic acid], the IC50 is less than 300 nM.

As to `O=C(O)Cc1cncc(-c2ccc(C(F)(F)F)cc2CN(Cc2ccccn2)C(=O)C2CC2)c1` [Compound 1-52, (5-{2-[(N-Cyclopropanecarbonyl-N-pyridin-2-ylmethyl-amino)-methyl]-4-trifluoromethyl-phenyl}-pyridin-3-yl)-acetic acid], the IC50 was less than 300 nM. To `CC(=O)N(Cc1ccccn1)Cc1cc(C(F)(F)F)ccc1-c1cncc(CC(=O)O)c1` [Compound 1-53, (5-{2-[(N-Acetyl-N-pyridin-2-ylmethyl-amino)-methyl]-4-trifluoromethyl-phenyl}-pyridin-3-yl)-acetic acid] belongs less than 300 nM. The result for `Cc1cnc(CN(Cc2cc(C(F)(F)F)ccc2-c2cncc(CC(=O)O)c2)C(=O)C2CC2)cn1` [Compound 1-58, [5-(2-{[N-Cyclopropanecarbonyl-N-(5-methyl-pyrazin-2-ylmethyl)-amino]-methyl}-4-trifluoromethyl-phenyl)-pyridin-3-yl]-acetic acid] reads less than 300 nM; that for `O=C(O)Cc1cncc(-c2ccc(C(F)(F)F)cc2CN(Cc2ccc(C(F)(F)F)nc2)C(=O)C2CC2)c1` [Compound 1-59, [5-(2-{[N-Cyclopropanecarbonyl-N-(6-trifluoromethyl-pyridin-3-ylmethyl)-amino]-methyl}-4-trifluoromethyl-phenyl)-pyridin-3-yl]-acetic acid], less than 300 nM.
